Molecular target: human GSK3β (Homo sapiens, UniProt P49841)
Test: Screening for GSK3 inhibitory activity using a cell-free assay
Format: biochemical
Details: read-out: IC50 with respect to GSK3
Description: This amount represents the amount of radiolabeled phosphate incorporated into the peptide substrate.
The captured radiolabeled peptide substrate can be quantitated in a scintillation counter using known methods. […] If an inhibitor is present during the reaction, GSK3 activity will be reduced, and a smaller quantity of radiolabeled phosphate will thus be incorporated into the peptide substrate.
Pyrimidine and pyridine compounds of the present invention were dissolved in DMSO, then tested for inhibition of human GSK3β (the nucleotide sequence for human GSK3β appears in GenBank under Accession No. L33801).
While the reaction was proceeding, streptavidin-coated Labsystems “Combiplate 8” capture plates (Labsystems, Helsinki, Finland) were blocked by incubating them with 300 μl/well of PBS containing 1% bovine serum albumin for at least one hour at room temperature. The blocking solution was then removed by aspiration, and the capture plates were filled with 100 ul/well of stopping reagent (50 μM ATP/20 mM EDTA).
When the three hour enzyme reaction was finished, triplicate 100 μl aliquots of each reaction mix were transferred to three wells containing stopping solution, one well on each of the three capture plates, and the well contents were mixed well. […] Finally, 200 μl of Microscint-20 scintillation fluid was added to each well of the plate. The plates were coated with plate sealers, then left on a shaker for 30 minutes. Each capture plate was counted in a Packard TopCount scintillation counter (Meridian, Conn.) and the results were plotted as a function of compound concentration.

human GSK3β, sequence (P49841 whole entry): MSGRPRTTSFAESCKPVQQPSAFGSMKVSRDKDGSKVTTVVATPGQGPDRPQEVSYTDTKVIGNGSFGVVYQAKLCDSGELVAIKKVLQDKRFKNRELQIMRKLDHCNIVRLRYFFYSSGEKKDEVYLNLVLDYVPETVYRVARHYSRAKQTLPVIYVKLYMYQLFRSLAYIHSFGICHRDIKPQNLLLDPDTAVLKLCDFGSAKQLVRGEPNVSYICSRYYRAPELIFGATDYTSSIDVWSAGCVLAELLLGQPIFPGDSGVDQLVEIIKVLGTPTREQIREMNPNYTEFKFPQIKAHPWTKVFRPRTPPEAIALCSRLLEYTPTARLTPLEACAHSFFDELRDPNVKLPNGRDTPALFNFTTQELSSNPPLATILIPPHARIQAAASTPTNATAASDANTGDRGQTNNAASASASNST

Row | IC50 [µM] | SMILES
1 | ≤ 10 | CCOC(=O)c1cnc(NCCNc2ccc([N+](=O)[O-])cn2)nc1-c1ccc(S(N)(=O)=O)cc1 [ethyl 2-({2-[(5-nitro(2-pyridyl))amino]ethyl}amino)-4-(4-sulfamoylphenyl)pyrimidine-5-carboxylate]
2 | ≤ 1 | CN(C)CCN(C)C(=O)c1cnc(NCCNc2ccc([N+](=O)[O-])cn2)nc1-c1ccc(C#N)cc1 [N-[2-(dimethylamino)ethyl][4-(4-cyanophenyl)-2-({2-[(5-nitro(2-pyridyl))amino]ethyl}amino)pyrimidin-5-yl]-N-methylcarboxamide]
3 | ≤ 1 | CC(CNc1nccc(-c2ccc(C(N)=O)cc2)n1)c1ccccc1 (stereo not drawn) [4-{2-[(2-phenylpropyl)amino]pyrimidin-4-yl}benzamide]
4 | ≤ 1 | COc1cccc(CCNc2nccc(-c3ccc(C(N)=O)cc3)n2)c1OC [4-(2-{[2-(2,3-dimethoxyphenyl)ethyl]amino}pyrimidin-4-yl)benzamide]
5 | ≤ 1 | Cc1nccn1-c1cnc(NCCNc2ccc([N+](=O)[O-])c(N)n2)nc1-c1ccc(Cl)cc1Cl
6 | ≤ 10 | CCOC(=O)c1cnc(NCCNc2ccc([N+](=O)[O-])cn2)nc1NCc1ccccc1Cl [ethyl 4-{[(2-chlorophenyl)methyl]amino}-2-({2-[(5-nitro(2-pyridyl))amino]ethyl}amino)pyrimidine-5-carboxylate]
7 | ≤ 1 | CCOC(=O)c1cnc(NCCNc2ccc([N+](=O)[O-])cn2)nc1-c1ccc2ccccc2c1 [ethyl 4-(2-naphthyl)-2-({2-[(5-nitro(2-pyridyl))amino]-ethyl}amino)pyrimidine-5-carboxylate]
8 | ≤ 1 | Cc1noc(-c2cnc(NCCNc3ccc([N+](=O)[O-])cn3)nc2-c2ccc(C#N)cc2)n1 [4-[5-(3-methyl(1,2,4-oxadiazol-5-yl))-2-({2-[(5-nitro(2-pyridyl))amino]-ethyl}amino)pyrimidin-4-yl]benzenecarbonitrile]
9 | ≤ 1 | NC(=O)c1ccc(-c2ccnc(NCCNc3ccc4ccccc4n3)n2)cc1 [4-(2-{[2-(2-quinolylamino)ethyl]amino}pyrimidin-4-yl)benzamide]
10 | ≤ 1 | CCOC(=O)c1cnc(NCCNc2ccc([N+](=O)[O-])cn2)nc1-c1ccc([N+](=O)[O-])cc1
11 | ≤ 10 | Cc1cnc(CNC(=O)c2ccc(-c3ccnc(NCCNc4ccc([N+](=O)[O-])cn4)n3)cc2)cn1 [N-[(5-methylpyrazin-2-yl)methyl]{4-[2-({2-[(5-nitro(2-pyridyl))amino]ethyl}amino)pyrimidin-4-yl]phenyl}carboxamide]
12 | ≤ 1 | Nc1nc(NCCNc2ncc(N3CCNCC3)c(-c3ccc(Cl)cc3Cl)n2)ccc1[N+](=O)[O-] [{2-[(6-amino-5-nitro(2-pyridyl))amino]-ethyl}[4-(2,4-dichlorophenyl)-5-piperazinylpyrimidin-2-yl]amine]
13 | ≤ 10 | CCOC(=O)c1cnc(NCCc2cccc(OC)c2)nc1-c1ccc(C#N)cc1 [ethyl 4-(4-cyanophenyl)-2-{[2-(3-methoxyphenyl)ethyl]amino}pyrimidine-5-carboxylate]

Continued, molecule first:

Row | SMILES | IC50 [µM]
14 | N#Cc1ccc(-c2nc(NCCNc3ccc([N+](=O)[O-])c(N)n3)ncc2-c2ncc[nH]2)cc1 [4-[2-({2-[(6-amino-5-nitro(2-pyridyl))amino]-ethyl}amino)-5-imidazol-2-ylpyrimidin-4-yl]benzenecarbonitrile] | ≤ 1
15 | Cc1nc(C)c(-c2ccnc(NCCNc3ccc([N+](=O)[O-])cn3)n2)s1 [[4-(2,4-dimethyl(1,3-thiazol-5-yl))pyrimidin-2-yl]{2-[(5-nitro(2-pyridyl))-amino]ethyl}amine] | ≤ 10
16 | Cc1c[nH]c(-c2cnc(NCCNc3ccc([N+](=O)[O-])cn3)nc2-c2ccc(Cl)cc2Cl)n1 [[4-(2,4-dichlorophenyl)-5-(4-methylimidazol-2-yl)pyrimidin-2-yl]{2-[(5-nitro(2-pyridyl))amino]ethyl}amine] | ≤ 1
17 | NC(=O)c1ccc(-c2ccnc(NCCCCc3ccccc3)n2)cc1 [4-{2-[(4-phenylbutyl)amino]-pyrimidin-4-yl}benzamide] | ≤ 10
18 | O=[N+]([O-])c1ccc(NCCNc2nccc(-c3cnccn3)n2)nc1 [{2-[(5-nitro(2-pyridyl))amino]ethyl}(4-pyrazin-2-ylpyrimidin-2-yl)amine] | ≤ 10
19 | CN(C)CCNC(=O)c1cnc(NCCNc2ccc([N+](=O)[O-])cn2)nc1-c1ccc(C#N)cc1 [N-[2-(dimethylamino)ethyl][4-(4-cyanophenyl)-2-({2-[(5-nitro(2-pyridyl))-amino]ethyl}amino)pyrimidin-5-yl]carboxamide] | ≤ 1
20 | N#Cc1ccc(-c2nc(NCCNc3ccc([N+](=O)[O-])cn3)ncc2C(=O)NCC(N)=O)cc1 [N-(carbamoylmethyl)[4-(4-cyanophenyl)-2-({2-[(5-nitro(2-pyridyl))amino]ethyl}amino)pyrimidin-5-yl]carboxamide] | ≤ 1
21 | O=C(O)c1c(-c2ccc([N+](=O)[O-])cc2)nc(NCCNc2ccc([N+](=O)[O-])cn2)nc1C1CCCCC1 [4-cyclohexyl-2-({2-[(5-nitro(2-pyridyl))amino]ethyl}amino)-6-(4-nitrophenyl)pyrimidine-5-carboxylic acid] | ≤ 10
22 | O=C(NCc1cccc([N+](=O)[O-])c1)c1ccc(-c2ccnc(NCCNc3ccc([N+](=O)[O-])cn3)n2)cc1 [{4-[2-({2-[(5-nitro(2-pyridyl))amino]ethyl}amino)pyrimidin-4-yl]phenyl}-N-[(3-nitrophenyl)-methyl]carboxamide] | ≤ 10
23 | c1ccc(-c2ccnc(NCCNc3ccccn3)n2)cc1 [(4-phenylpyrimidin-2-yl)[2-(2-pyridylamino)ethyl]amine] | ≤ 10
24 | CCOC(=O)c1cnc(NCCNc2ccc([N+](=O)[O-])cn2)nc1-c1cccc([N+](=O)[O-])c1 [ethyl 2-({2-[(5-nitro(2-pyridyl))amino]ethyl}amino)-4-(3-nitrophenyl)pyrimidine-5-carboxylate] | ≤ 10
25 | CCOC(=O)c1cnc(NCCNc2ccc([N+](=O)[O-])cn2)nc1NCc1ccc(C#N)cc1 [ethyl 4-{[(4-cyanophenyl)methyl]amino}-2-({2-[(5-nitro(2-pyridyl))amino]-ethyl}amino)pyrimidine-5-carboxylate] | ≤ 1
26 | Cc1cccc(CNC(=O)c2ccc(-c3ccnc(NCc4cccc(Br)c4)n3)cc2)c1 [[4-(2-{[(3-bromophenyl)methyl]amino}pyrimidin-4-yl)phenyl]-N-[(3-methylphenyl)methyl]carboxamide] | ≤ 10
27 | Nc1nc(NCCNc2ccc(-n3ccnc3)c(-c3ccc(Cl)cc3Cl)n2)ccc1[N+](=O)[O-] [{2-[(6-amino-5-nitro(2-pyridyl))amino]ethyl}[6-(2,4-dichlorophenyl)-5-imidazolyl(2-pyridyl)]amine] | ≤ 1
28 | CCOC(=O)c1cnc(NCCNc2ccc([N+](=O)[O-])cn2)nc1-c1ccc(N(CC)CC)cc1 [ethyl 4-[4-(diethylamino)phenyl]-2-({2-[(5-nitro(2-pyridyl))amino]ethyl}-amino)pyrimidine-5-carboxylate] | ≤ 10
29 | N#Cc1ccc(-c2nc(NCCNc3ccc([N+](=O)[O-])cn3)ncc2C(=O)OCc2ccccc2)cc1 [phenylmethyl 4-(4-cyanophenyl)-2-({2-[(5-nitro(2-pyridyl))amino]ethyl}amino)pyrimidine-5-carboxylate] | ≤ 1
30 | Cc1nc(NCCNc2ccc([N+](=O)[O-])cn2)nc(-c2ccccc2)c1C(=O)O [6-methyl-2-({2-[(5-nitro(2-pyridyl))amino]ethyl}amino)-4-phenylpyrimidine-5-carboxylic acid] | ≤ 10
31 | FC(F)(F)Oc1ccc(-c2ccnc(NCCNc3ccccn3)n2)cc1 [[2-(2-pyridylamino)ethyl]{4-[4-(trifluoromethoxy)-phenyl]pyrimidin-2-yl}amine] | ≤ 10
32 | CCOC(=O)c1cnc(NCCNc2ccc([N+](=O)[O-])cn2)nc1-c1ccc(N2CCOCC2)nc1 [ethyl 4-(6-morpholin-4-yl(3-pyridyl))-2-({2-[(5-nitro(2-pyridyl))amino]-ethyl}amino)pyrimidine-5-carboxylate] | ≤ 1
33 | O=C(O)c1c(-c2ccc([N+](=O)[O-])cc2)nc(NCCNc2ccc([N+](=O)[O-])cn2)nc1-c1ccc(C(F)(F)F)cc1 [2-({2-[(5-nitro(2-pyridyl))amino]ethyl}amino)-6-(4-nitrophenyl)-4-[4-(trifluoromethyl)phenyl]pyrimidine-5-carboxylic acid] | ≤ 10
34 | CCOC(=O)c1cnc(NCCNc2ccc([N+](=O)[O-])cn2)nc1-c1ccc(N2CCOCC2)cc1 [ethyl-4-(morpholin-4-ylphenyl)-2-({2-[(5-nitro(2-pyridyl))amino]ethyl}amino)pyrimidine-5-carboxylate] | ≤ 1
35 | CN1CC(=O)N(c2cnc(NCCNc3ccc([N+](=O)[O-])cn3)nc2-c2ccc(Cl)cc2Cl)C(=O)C1 [1-[4-(2,4-dichlorophenyl)-2-({2-[(5-nitro(2-pyridyl))amino]ethyl}amino)pyrimidin-5-yl]-4-methylpiperazine-2,6-dione] | ≤ 1
36 | O=[N+]([O-])c1ccc(NCCNc2ncc(-c3ncc[nH]3)c(-c3ccc(C(F)(F)F)cc3)n2)nc1 [{5-imidazol-2-yl-4-[4-(trifluoromethyl)phenyl]pyrimidin-2-yl}{2-[(5-nitro(2-pyridyl))amino]ethyl}amine] | ≤ 1

— patent US7425557B2, “Inhibitors of glycogen synthase kinase 3” (Novartis Vaccines and Diagnostics, Inc., priority 1998, dated 2008)
